Assay results from ChEMBL document CHEMBL4476864, “Azapeptides as cd36 binding compounds” (2013).
The source made the active and inactive calls. The calls are words filed in the database; no cut-off is given here. Starred links: 1 amine or outer side, 2 acyl side, 3 side chain; linkers in the order of their positions; H or OH if unused. Non-standard residues stand in square brackets, D forms with d. Residues, ends and D or L forms follow the SMILES beside them. azaTyr = O=C(N(Cc1ccc(O)cc1)N[*:1])[*:2]

Key:
Mus musculus [1] = assay: Inhibition of choroidal neovascularization in CD36+/+ C57BL/6 mouse model of FITC-conjugated dextran infusion following laser-induced posterior retinal injury administered in to vitreous tissue; format: functional
Mus musculus [2] = assay: Inhibition of choroidal neovascularization in CD36-/- C57BL/6 mouse model of FITC-conjugated dextran infusion following laser-induced posterior retinal injury administered in to vitreous tissue; format: functional, organism-based
Aorta [3] = assay: Inhibition of vascular sprouting in CD36-/- C57BL/6 mouse aortic rings exposed on day 4 to 6; format: functional, tissue-based
Aorta [4] = assay: Inhibition of vascular sprouting in CD36+/+ C57BL/6 mouse aortic rings exposed on day 4 to 6; format: functional, tissue-based

Which “inhibition (INH)” value (Mus musculus [1]) does the source give for `C[C@H](NC(=O)[C@@H](Cc1c[nH]c2ccccc12)NC(=O)[C@@H](N)Cc1cnc[nH]1)C(=O)NN(Cc1ccc(O)cc1)C(=O)N[C@H](Cc1ccccc1)C(=O)N[C@@H](CCCCN)C(N)=O` (H-H[dW]A[azaTyr][dF]K-NH2) here?
The value was >50%.

And the inhibition (Mus musculus [2])?
Its inhibition is “inactive”.

What about the inhibition (Aorta [3]) of the same molecule?
The inhibition was “inactive”.

What about the inhibition (Aorta [4]) of the same molecule?
Its inhibition is “Dose-dependent effect”.
